Test results reported in patent US20090030065A1, “Use of Pde1c and Inhibitors Thereof” (NYCOMED GmbH, priority 2005, published 2009).

Experiments:
Assay type in all cases: biochemical
[1] = target: human recombinant PDE4B2 (Homo sapiens, UniProt Q07343); test: Inhibition of recombinant PDE activity, SPA test: PDE4B2; conditions: human recombinant enzyme; read-out: IC50 on PDE 4B2
Experimental: (§1) Measurement of the Inhibition of Phosphodiesterase Activity Phosphodiesterase activity is measured in a modified SPA (scintillation proximity assay) test, supplied by Amersham Biosciences (see procedural instructions “phosphodiesterase [3H]cAMP SPA enzyme assay, code TRKQ 7090”), carried out in 96-well microtitre plates (MTP's): The test volume is 100 μl and contains 20 mM Tris buffer (pH 7.4), 0.1 mg of BSA (bovine serum albumin)/ml, 5 mM Mg^2+, 0.5 μM cGMP or cAMP (including about 50,000 cpm of [3H]cGMP or [3H]cAMP as a tracer; whether to use cAMP or cGMP depends on the substrate-specificity of the phosphodiesterase measured), 1 μl of the respective substance dilution in DMSO and sufficient recombinant PDE to ensure that 10-20% of the cGMP or cAMP is converted under the said experimental conditions. […] After a preincubation of 5 min at 37° C., the reaction is started by adding the substrate (cGMP) and the assay is incubated for a further 15 min; after that, it is stopped by adding SPA beads (50 μl). […] After the beads have been sedimented (>30 min), the MTP's are analyzed in commercially available luminescence detection devices. The corresponding IC50 values of the compounds for the inhibition of PDE activity are determined from the concentration-effect curves by means of non-linear regression.
(§2) Compound A and B are analyzed for inhibition of PDE family members as described.

[2] = target: human recombinant PDE3A1 (Homo sapiens, UniProt Q14432); test: Inhibition of recombinant PDE activity, SPA test: PDE3A1; conditions: human recombinant enzyme; read-out: IC50 on PDE 3A1
Experimental: as §1, §2

[3] = target: human recombinant PDE1C1 (Homo sapiens, UniProt Q14123); test: Inhibition of recombinant PDE activity, SPA test: PDE1C1; conditions: for IC50: human recombinant enzyme, read-out: IC50 on PDE 1C1; for Selectivity for PDE1C1 versus other PDE family members tested: see Tab. 1
Experimental: Measurement of the Inhibition of Phosphodiesterase Activity Phosphodiesterase activity is measured in a modified SPA (scintillation proximity assay) test, supplied by Amersham Biosciences (see procedural instructions “phosphodiesterase [3H]cAMP SPA enzyme assay, code TRKQ 7090”), carried out in 96-well microtitre plates (MTP's): The test volume is 100 μl and contains 20 mM Tris buffer (pH 7.4), 0.1 mg of BSA (bovine serum albumin)/ml, 5 mM Mg^2+, 0.5 μM cGMP or cAMP (including about 50,000 cpm of [3H]cGMP or [3H]cAMP as a tracer; whether to use cAMP or cGMP depends on the substrate-specificity of the phosphodiesterase measured), 1 μl of the respective substance dilution in DMSO and sufficient recombinant PDE to ensure that 10-20% of the cGMP or cAMP is converted under the said experimental conditions. […] After a preincubation of 5 min at 37° C., the reaction is started by adding the substrate (cGMP) and the assay is incubated for a further 15 min; after that, it is stopped by adding SPA beads (50 μl). In accordance with the manufacturer's instructions, the SPA beads had previously been resuspended in water, but were then diluted 1:3 (v/v) in water; the diluted solution also contains 3 mM IBMX to ensure a complete PDE activity stop. After the beads have been sedimented (>30 min), the MTP's are analyzed in commercially available luminescence detection devices. The corresponding IC50 values of the compounds for the inhibition of PDE activity are determined from the concentration-effect curves by means of non-linear regression.
as §2

[4] = target: human recombinant PDE5A1 (Homo sapiens, UniProt O76074); test: Inhibition of recombinant PDE activity, SPA test: PDE5A1; conditions: human recombinant enzyme; read-out: IC50 on PDE 5A1
Experimental: as §1, §2

[5] = target: human recombinant PDE2A3 (Homo sapiens, UniProt O00408); test: Inhibition of recombinant PDE activity, SPA test: PDE2A3; conditions: human recombinant enzyme; read-out: IC50 on PDE 2A3
Experimental: as §1, §2

[6] = target: human recombinant PDE10A (Homo sapiens, UniProt Q9Y233); test: Inhibition of recombinant PDE activity, SPA test: PDE10A; conditions: human recombinant enzyme; read-out: IC50 on PDE 10A
Experimental: as §1, §2

[7] = target: human recombinant PDE11A4 (Homo sapiens, UniProt Q9HCR9); test: Inhibition of recombinant PDE activity, SPA test: PDE11A4; conditions: human recombinant enzyme; read-out: IC50 on PDE 11A4
Experimental: as §1, §2

[8] = tested on: PDE3; test: PDE isoenzyme activities in cellular lysates: PDE3; conditions: 10 μM, 0.5 μM cyclic AMP
Experimental: (§3) Cells (1-3×10^6) were washed twice in phosphate buffered saline (4° C.) and resuspended in 1 ml homogenization buffer (137 mM NaCl, 2.7 mM KCl, 8.1 mM Na2HPO4, 1.5 mM KH2PO4, 10 mM HEPES, 1 mM EGTA, 1 mM MgCl2, 1 mM-mercaptoethanol, […], […], 50 mM phenylmethylsulfonyl fluoride, 10 mM soybean trypsin inhibitor, 2 mM benzamidine, pH 8.2). Cells were disrupted by sonication (Branson sonifier, 3×15 s) and lysates were immediately used for phosphodiesterase (PDE) activity measurements. PDE activities were assessed in cellular lysates as described (Thompson & Appleman, 1979) with some modifications (Bauer & Schwabe, 1980). The assay mixture (final volume […]) contained (mM): Tris HCl 30; pH 7.4, MgCl2 5, 0.5 μM either cyclic AMP or cyclic GMP as substrate including [^3H]cAMP or [^3H]cGMP (about 30 000 c.p.m. per well), […], PDE isoenzyme-specific activators and inhibitors as described below and cellular lysates. Incubations were performed for 60 min at 37° C. and reactions were terminated by adding […] 0.2 M HCl per well. Assays were left on ice for 10 min and then […] 5′-nucleotidase (Crotalus atrox) was added. […] Columns were eluted with 2 ml 30 mM ammonium formiate (pH 6.0) and radioactivity in the eluate was counted. […] Briefly, PDE4 was calculated as the difference of PDE activities at 0.5 μM cyclic AMP in the presence and absence of 1 μM Piclamilast. […]

[9] = target: T1, PDE2 (Homo sapiens, UniProt O00408); test: PDE isoenzyme activities in cellular lysates: PDE2; conditions: 100 nM
T1 construct: endogenous in cells
Experimental: as §3

[10] = tested on: PDE4; test: PDE isoenzyme activities in cellular lysates: PDE4; conditions: 1 μM, 0.5 μM cyclic AMP
Experimental: as §3

[11] = target: T2, PDE5 (Homo sapiens, UniProt O76074); test: PDE isoenzyme activities in cellular lysates: PDE5; conditions: 100 nM, 0.5 μM cyclic GMP
T2 construct: PDE activities were assessed in cellular lysates; endogenous in cells
Experimental: Cells (1-3×10^6) were washed twice in phosphate buffered saline (4° C.) and resuspended in 1 ml homogenization buffer (137 mM NaCl, 2.7 mM KCl, 8.1 mM Na2HPO4, 1.5 mM KH2PO4, 10 mM HEPES, 1 mM EGTA, 1 mM MgCl2, 1 mM-mercaptoethanol, 5 mM pepstatin A, 10 mM leupeptin, 50 mM phenylmethylsulfonyl fluoride, 10 mM soybean trypsin inhibitor, 2 mM benzamidine, pH 8.2). Cells were disrupted by sonication (Branson sonifier, 3×15 s) and lysates were immediately used for phosphodiesterase (PDE) activity measurements. PDE activities were assessed in cellular lysates as described (Thompson & Appleman, 1979) with some modifications (Bauer & Schwabe, 1980). The assay mixture (final volume 200 ml) contained (mM): Tris HCl 30; pH 7.4, MgCl2 5, 0.5 μM either cyclic AMP or cyclic GMP as substrate including [^3H]cAMP or [^3H]cGMP (about 30 000 c.p.m. per well), 100 mM EGTA, PDE isoenzyme-specific activators and inhibitors as described below and cellular lysates. Incubations were performed for 60 min at 37° C. and reactions were terminated by adding 50 ml 0.2 M HCl per well. Assays were left on ice for 10 min and then 25 mg 5′-nucleotidase (Crotalus atrox) was added. Following an incubation for 10 min at 37° C. assay mixtures were loaded onto QAE-Sephadex A25 columns (1 ml bed volume). Columns were eluted with 2 ml 30 mM ammonium formiate (pH 6.0) and radioactivity in the eluate was counted. […]

Sequence of human recombinant PDE1C1 (Q14123 1-634 isoform Q14123-2): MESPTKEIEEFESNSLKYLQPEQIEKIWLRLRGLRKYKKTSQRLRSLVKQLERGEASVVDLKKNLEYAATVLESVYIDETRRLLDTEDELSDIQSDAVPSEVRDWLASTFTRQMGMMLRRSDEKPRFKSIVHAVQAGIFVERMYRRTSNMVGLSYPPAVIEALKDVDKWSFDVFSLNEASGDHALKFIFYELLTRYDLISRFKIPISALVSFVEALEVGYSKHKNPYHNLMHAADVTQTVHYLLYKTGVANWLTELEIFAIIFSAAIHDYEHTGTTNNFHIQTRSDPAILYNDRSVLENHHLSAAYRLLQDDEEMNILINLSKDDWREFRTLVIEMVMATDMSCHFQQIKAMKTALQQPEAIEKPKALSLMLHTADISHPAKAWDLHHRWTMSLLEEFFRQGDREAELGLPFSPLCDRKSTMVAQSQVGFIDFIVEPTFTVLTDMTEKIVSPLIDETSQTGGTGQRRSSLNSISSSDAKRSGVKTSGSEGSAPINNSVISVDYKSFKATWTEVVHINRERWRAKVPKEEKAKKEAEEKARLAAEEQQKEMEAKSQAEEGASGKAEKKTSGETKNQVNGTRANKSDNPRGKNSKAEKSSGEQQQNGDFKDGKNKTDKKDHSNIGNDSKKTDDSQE
Sequence of human recombinant PDE11A4 (Q9HCR9 whole entry): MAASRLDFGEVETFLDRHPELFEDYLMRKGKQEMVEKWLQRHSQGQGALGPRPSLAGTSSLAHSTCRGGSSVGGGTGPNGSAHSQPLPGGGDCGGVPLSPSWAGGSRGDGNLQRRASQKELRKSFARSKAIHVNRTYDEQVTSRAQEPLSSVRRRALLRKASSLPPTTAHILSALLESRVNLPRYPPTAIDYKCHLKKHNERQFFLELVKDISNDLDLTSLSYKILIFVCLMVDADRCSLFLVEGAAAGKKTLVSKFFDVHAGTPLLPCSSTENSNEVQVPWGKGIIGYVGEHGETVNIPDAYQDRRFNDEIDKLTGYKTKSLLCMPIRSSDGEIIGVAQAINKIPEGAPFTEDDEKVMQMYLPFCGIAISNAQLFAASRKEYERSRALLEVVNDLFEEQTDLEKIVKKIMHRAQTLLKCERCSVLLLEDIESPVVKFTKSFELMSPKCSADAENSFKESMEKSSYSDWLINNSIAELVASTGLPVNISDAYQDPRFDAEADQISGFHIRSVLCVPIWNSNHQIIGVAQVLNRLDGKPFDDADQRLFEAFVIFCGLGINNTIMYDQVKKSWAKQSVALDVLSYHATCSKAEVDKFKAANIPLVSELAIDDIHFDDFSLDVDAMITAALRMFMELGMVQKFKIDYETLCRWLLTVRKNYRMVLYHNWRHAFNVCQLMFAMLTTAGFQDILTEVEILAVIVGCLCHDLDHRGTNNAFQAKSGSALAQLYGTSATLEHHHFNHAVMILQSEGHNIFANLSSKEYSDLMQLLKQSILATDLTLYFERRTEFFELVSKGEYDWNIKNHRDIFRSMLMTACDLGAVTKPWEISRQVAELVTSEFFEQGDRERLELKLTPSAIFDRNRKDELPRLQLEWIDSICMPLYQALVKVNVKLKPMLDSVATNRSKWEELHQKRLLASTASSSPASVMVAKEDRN
Sequence of human recombinant PDE2A3 (O00408 whole entry): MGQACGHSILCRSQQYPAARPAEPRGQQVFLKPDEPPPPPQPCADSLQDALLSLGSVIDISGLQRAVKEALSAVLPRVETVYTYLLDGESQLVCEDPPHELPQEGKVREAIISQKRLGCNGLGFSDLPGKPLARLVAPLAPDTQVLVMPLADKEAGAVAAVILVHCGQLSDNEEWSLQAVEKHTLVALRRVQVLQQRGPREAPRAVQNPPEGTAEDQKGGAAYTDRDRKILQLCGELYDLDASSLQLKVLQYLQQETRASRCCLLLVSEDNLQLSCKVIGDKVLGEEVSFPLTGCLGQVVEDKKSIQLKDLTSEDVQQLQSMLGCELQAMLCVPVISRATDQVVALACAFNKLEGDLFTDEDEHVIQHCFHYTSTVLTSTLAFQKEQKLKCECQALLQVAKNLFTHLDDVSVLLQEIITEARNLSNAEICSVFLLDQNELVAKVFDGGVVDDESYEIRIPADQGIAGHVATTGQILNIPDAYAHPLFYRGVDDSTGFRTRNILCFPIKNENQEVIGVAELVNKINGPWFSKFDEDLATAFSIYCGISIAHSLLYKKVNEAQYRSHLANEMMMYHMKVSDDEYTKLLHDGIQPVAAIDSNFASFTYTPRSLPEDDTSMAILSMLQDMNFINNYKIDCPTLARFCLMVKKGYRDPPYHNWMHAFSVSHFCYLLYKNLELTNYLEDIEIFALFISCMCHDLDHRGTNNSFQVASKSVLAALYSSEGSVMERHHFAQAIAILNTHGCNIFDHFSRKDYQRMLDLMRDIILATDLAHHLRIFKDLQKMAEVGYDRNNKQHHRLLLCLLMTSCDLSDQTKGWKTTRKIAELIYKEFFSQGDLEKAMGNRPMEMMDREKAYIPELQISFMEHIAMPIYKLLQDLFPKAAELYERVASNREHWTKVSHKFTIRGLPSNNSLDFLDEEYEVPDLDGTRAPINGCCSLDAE
Sequence of human recombinant PDE4B2 (Q07343 1-564 isoform Q07343-2): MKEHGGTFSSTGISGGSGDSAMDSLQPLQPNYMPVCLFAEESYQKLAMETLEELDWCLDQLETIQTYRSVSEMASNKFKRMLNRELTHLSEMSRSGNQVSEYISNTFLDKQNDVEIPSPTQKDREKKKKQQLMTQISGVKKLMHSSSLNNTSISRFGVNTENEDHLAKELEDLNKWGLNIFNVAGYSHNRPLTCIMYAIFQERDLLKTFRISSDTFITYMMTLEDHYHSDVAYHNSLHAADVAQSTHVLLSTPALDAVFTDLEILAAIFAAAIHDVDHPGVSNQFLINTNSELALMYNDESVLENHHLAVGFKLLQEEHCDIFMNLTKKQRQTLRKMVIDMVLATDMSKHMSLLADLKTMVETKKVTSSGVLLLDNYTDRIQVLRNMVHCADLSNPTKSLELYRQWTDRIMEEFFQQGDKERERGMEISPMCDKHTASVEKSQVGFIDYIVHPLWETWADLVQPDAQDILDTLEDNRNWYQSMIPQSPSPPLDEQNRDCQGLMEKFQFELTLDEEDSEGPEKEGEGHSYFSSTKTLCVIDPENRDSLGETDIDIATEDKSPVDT
Sequence of human recombinant PDE3A1 (Q14432 whole entry): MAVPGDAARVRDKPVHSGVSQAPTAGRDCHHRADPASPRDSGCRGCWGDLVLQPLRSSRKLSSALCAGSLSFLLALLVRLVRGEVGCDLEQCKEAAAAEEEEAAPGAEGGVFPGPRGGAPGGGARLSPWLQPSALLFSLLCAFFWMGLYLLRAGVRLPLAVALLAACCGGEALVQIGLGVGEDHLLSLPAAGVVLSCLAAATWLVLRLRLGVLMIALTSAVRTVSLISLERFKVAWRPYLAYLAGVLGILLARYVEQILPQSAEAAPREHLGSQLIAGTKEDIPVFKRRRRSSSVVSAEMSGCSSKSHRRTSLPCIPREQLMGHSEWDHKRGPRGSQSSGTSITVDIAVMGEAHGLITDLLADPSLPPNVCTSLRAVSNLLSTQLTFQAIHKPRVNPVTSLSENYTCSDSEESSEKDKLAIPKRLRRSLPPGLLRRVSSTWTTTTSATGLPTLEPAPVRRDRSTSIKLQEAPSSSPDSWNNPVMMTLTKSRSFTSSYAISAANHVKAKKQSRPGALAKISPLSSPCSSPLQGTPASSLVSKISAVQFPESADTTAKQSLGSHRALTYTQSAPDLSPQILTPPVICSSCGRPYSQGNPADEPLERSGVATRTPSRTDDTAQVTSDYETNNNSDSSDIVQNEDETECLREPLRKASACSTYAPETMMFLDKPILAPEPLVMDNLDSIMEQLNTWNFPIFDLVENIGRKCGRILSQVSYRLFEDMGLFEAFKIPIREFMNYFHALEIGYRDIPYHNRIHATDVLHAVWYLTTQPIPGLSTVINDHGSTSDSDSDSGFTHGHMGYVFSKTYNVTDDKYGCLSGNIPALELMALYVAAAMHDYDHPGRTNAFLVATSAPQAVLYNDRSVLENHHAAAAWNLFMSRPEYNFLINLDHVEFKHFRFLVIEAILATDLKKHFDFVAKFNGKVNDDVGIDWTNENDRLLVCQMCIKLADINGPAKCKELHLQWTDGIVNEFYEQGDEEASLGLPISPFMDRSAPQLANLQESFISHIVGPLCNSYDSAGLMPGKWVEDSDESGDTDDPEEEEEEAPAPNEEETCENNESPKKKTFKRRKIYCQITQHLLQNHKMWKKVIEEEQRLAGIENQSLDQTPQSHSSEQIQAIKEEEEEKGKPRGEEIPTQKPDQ
Sequence of human recombinant PDE10A (Q9Y233 290-1055 limits assumed): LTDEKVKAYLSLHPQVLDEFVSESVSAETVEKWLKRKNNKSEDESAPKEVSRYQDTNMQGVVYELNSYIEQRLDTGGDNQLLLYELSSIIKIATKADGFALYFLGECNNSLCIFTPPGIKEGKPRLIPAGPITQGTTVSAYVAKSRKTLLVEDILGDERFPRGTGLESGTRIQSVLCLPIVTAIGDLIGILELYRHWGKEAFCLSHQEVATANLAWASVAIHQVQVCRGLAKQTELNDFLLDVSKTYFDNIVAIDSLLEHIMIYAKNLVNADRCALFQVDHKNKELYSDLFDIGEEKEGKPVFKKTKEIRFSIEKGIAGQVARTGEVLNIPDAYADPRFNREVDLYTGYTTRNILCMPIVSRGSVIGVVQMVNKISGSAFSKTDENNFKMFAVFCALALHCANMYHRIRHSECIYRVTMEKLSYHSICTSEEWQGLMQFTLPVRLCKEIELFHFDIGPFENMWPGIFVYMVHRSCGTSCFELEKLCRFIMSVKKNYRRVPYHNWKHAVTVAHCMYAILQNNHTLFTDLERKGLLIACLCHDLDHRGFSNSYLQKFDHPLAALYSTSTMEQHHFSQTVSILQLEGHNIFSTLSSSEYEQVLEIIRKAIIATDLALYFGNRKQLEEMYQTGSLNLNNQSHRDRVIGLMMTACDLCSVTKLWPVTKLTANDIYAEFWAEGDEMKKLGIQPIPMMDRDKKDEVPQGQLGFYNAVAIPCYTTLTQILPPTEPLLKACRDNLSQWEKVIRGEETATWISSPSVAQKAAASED
T1 sequence (O00408 whole entry): as the sequence (O00408 whole entry) above

Row | Structure (SMILES) | IC50 [1] [µM] | IC50 [2] [µM] | IC50 value on human recombinant PDE1C1, in words [3] | IC50 [3] [µM] | Selectivity for PDE1C1 versus other PDE family members tested [3] | IC50 [4] [µM] | IC50 [5] [µM] | IC50 [6] [µM] | IC50 [7] [µM] | other results
1 | CC(C)(C)CC(C)(C)c1ccc(OCC(=O)N/N=C/c2ccc(-c3cccc(C(=O)O)c3)o2)c([N+](=O)[O-])c1 [Compound A] | > 100 | > 100 | in the nanomolar range | 0.083 | selective versus other PDE family members tested | > 100 | > 100 | > 100 | > 100 | 
2 | Cc1ccc(/C(O)=C2/C(=O)C(=O)N(c3ccccc3)C2=S)cc1 [Compound B, 4-[Hydroxy(4-methylphenyl)methylidene]-1-phenyl-5-thioxopyrrolidine-2,3-dione] | 9.3 | > 100 | in the nanomolar range | 0.1 | selective versus other PDE family members tested | 16 | 13 | 77 | 22 | 
3 | CC1CC(=O)NN=C1c1cc(-n2ccnc2)cs1 (stereo not shown) [Motapizone] |  |  |  |  |  |  |  |  |  | Block of PDE3 activity [8]: completely blocked
4 | COc1ccc(Cc2nc3c(ncn3C(CCCc3ccccc3)C(C)=O)c(=O)[nH]2)cc1OC (stereo not shown) [PDP] |  |  |  |  |  |  |  |  |  | Inhibition of cyclic GMP-induced cyclic AMP degrading activity increment (PDE2) [9]: completely inhibited
5 | COc1ccc(C(=O)Nc2c(Cl)cncc2Cl)cc1OC1CCCC1 [Piclamilast] |  |  |  |  |  |  |  |  |  | Block of PDE4 activity [10]: completely blocked
6 | CCCc1nn(C)c2c(=O)[nH]c(-c3cc(S(=O)(=O)N4CCN(C)CC4)ccc3OCC)nc12 [Sildenafil] |  |  |  |  |  |  |  |  |  | Block of PDE5 activity [11]: completely blocked
